Patent US20090029995A1, “HETERO BIARYL DERIVATIVES AS MATRIX METALLOPROTEINASE INHIBITORS” (WARNER-LAMBERT COMPANY, priority 2002, published 2009)
Where a name gives a salt, the structure may show the parent alone.

Target: T1, MMP-13 catalytic domain (Homo sapiens, UniProt P45452)
T1 construct: use the catalytic domain of the MMP-13 enzyme, namely matrix metalloproteinase-13 catalytic domain (“MMP-13CD”)
Assay: MMP-13 catalytic domain inhibition (thiopeptolide substrate hydrolysis)
Format: biochemical
Settings: read-out: MMP-13CD IC50
Text: The assays measure the amount by which a test compound reduces the hydrolysis of a thiopeptolide substrate catalyzed by a matrix metalloproteinase enzyme. […] One such assay is described below in Biological Method 1.
Some of the particular methods described below use the catalytic domain of the MMP-13 enzyme, namely matrix metalloproteinase-13 catalytic domain (“MMP-13CD”), rather than the corresponding full-length enzyme, MMP-13.
Thiopeptolide substrates show virtually no decomposition or hydrolysis at or below neutral pH in the absence of a matrix metalloproteinase enzyme. A typical thiopeptolide substrate commonly utilized for assays is Ac-Pro-Leu-Gly-thioester-Leu-Leu-Gly-OEt. […] Assays are carried out with and without matrix metalloproteinase inhibitor compounds, and the amount of hydrolysis is compared for a determination of inhibitory activity of the test compounds.

Molecule | IC50 [nM]
O=C(O)c1ccc(Cn2nnc(-c3cccc(-c4nnc(Cc5ccccc5)o4)c3)n2)cc1 [Example A1, 4-{5-[3-(5-Benzyl-[1,3,4]oxadiazol-2-yl)-phenyl]-tetrazol-2-ylmethyl}-benzoic acid] | 440
O=C(O)c1ccc(Cn2nnc(-c3cccc(-c4nnc(-c5ccccc5)o4)c3)n2)cc1 [Example A2, 4-{5-[3-(5-Phenyl-[1,3,4]oxadiazol-2-yl)-phenyl]-tetrazol-2-ylmethyl}-benzoic acid] | > 3000
CC(C)(C)OC(=O)c1ccc(Cn2nnc(-c3cccc(-c4ncc(-c5ccccc5)o4)c3)n2)cc1 [Example A3, 4-{5-[3-(5-Phenyl-oxazol-2-yl)-phenyl]-tetrazol-2-ylmethyl}-benzoic acid tertiary butyl ester] | 1400
O=C(O)c1ccc(Cn2nnc(-c3cccc(-c4ncc(-c5ccccc5)o4)c3)n2)cc1 [Example A4, 4-{5-[3-(5-Phenyl-oxazol-2-yl)-phenyl]-tetrazol-2-ylmethyl}-benzoic acid] | 400
Fc1ccc(Cn2nnc(-c3cccc(-c4ncc(-c5ccccc5)o4)c3)n2)cc1F [Example A5, 2-(3,4-Difluoro-benzyl)-5-[3-(5-phenyl-oxazol-2-yl)-phenyl]-2H-tetrazole] | 1800
COc1ccc(-c2cnc(-c3cccc(-c4nnn(Cc5ccc(C(=O)OC(C)(C)C)cc5)n4)c3)o2)cc1 [Example A6, 4-(5-{3-[5-(4-Methoxy-phenyl)-oxazol-2-yl]-phenyl}-tetrazol-2-ylmethyl)-benzoic acid tertiary butyl ester] | 1000
COc1ccc(-c2cnc(-c3cccc(-c4nnn(Cc5ccc(C(=O)O)cc5)n4)c3)o2)cc1 [Example A7, 4-(5-{3-[5-(4-Methoxy-phenyl)-oxazol-2-yl]-phenyl}-tetrazol-2-ylmethyl)-benzoic acid] | 18
COc1ccc(-c2cnc(-c3cccc(-c4nnn(Cc5ccc(F)c(F)c5)n4)c3)o2)cc1 [Example A8, 2-(3,4-Difluoro-benzyl)-5-{3-[5-(4-methoxy-phenyl)-oxazol-2-yl]-phenyl}-2H-tetrazole] | 1300
COc1ccc(-c2cnc(-c3cccc(-c4nnn(Cc5ccc(C(=O)O)cc5)n4)c3)s2)cc1 [Example A9, 4-(5-{3-[5-(4-Methoxy-phenyl)-thiazol-2-yl]-phenyl}-tetrazol-2-ylmethyl)-benzoic acid] | 3.6
COc1ccc(-c2cnc(-c3cccc(-c4nnc(-c5ccc(C(=O)O)cc5)o4)c3)o2)cc1 [Example B1, 4-(5-{3-[5-(4-Methoxy-phenyl)-oxazol-2-yl]-phenyl}-[1,3,4]oxadiazol-2-yl)-benzoic acid] | 49000
COc1ccc(-c2cnc(-c3cccc(-c4nnc(Cc5ccc(C(=O)O)cc5)o4)c3)o2)cc1 [Example B2, 4-(5-{3-[5-(4-Methoxy-phenyl)-oxazol-2-yl]-phenyl}-[1,3,4]oxadiazol-2-ylmethyl)-benzoic acid] | 200
COc1ccc(-c2cnc(-c3cccc(-c4nnc(Cc5ccc(C(=O)O)cc5)s4)c3)o2)cc1 [Example B3, 4-(5-{3-[5-(4-Methoxy-phenyl)-oxazol-2-yl]-phenyl}-[1,3,4]thiadiazol-2-ylmethyl)-benzoic acid] | 14
O=C(O)c1ccc(-c2nnc(-c3cccc(C#CCc4ccccc4)c3)o2)cc1 [Example C1, 4-{5-[3-(3-Phenyl-prop-1-ynyl)-phenyl]-[1,3,4]oxadiazol-2-yl}-benzoic acid] | 3400
NCc1ccc(Cn2nnc(-c3cccc(C#CCc4ccccc4)c3)n2)cc1 [Example D6, 4-{5-[3-(3-Phenyl-prop-1-ynyl)-phenyl]-tetrazol-2-ylmethyl}-benzylamine] | 2800
CCCC(=O)NCc1ccc(Cn2nnc(-c3cccc(C#CCc4ccccc4)c3)n2)cc1 [Example D7, N-(4-{5-[3-(3-Phenyl-prop-1-ynyl)-phenyl]-tetrazol-2-ylmethyl}-benzyl)-butyramide] | 1300
CC(=O)NCc1ccc(Cn2nnc(-c3cccc(C#CCc4ccccc4)c3)n2)cc1 [Example D8, N-(4-{5-[3-(3-Phenyl-prop-1-ynyl)-phenyl]-tetrazol-2-ylmethyl}-benzyl)-acetamide] | 330
O=C(O)c1ccc(Cn2nnc(-c3cccc(C(=O)NCc4ccncc4)c3)n2)cc1 [Example F1, 4-(5-{3-[(Pyridin-4-ylmethyl)-carbamoyl]-phenyl}-tetrazol-2-ylmethyl)-benzoic acid; compound with trifluoro-acetic acid] | 99
O=C(O)c1ccc(Cn2nnc(-c3cccc(C(=O)NCc4cccnc4)c3)n2)cc1 [Example F2, 4-(5-{3-[(Pyridin-3-ylmethyl)-carbamoyl]-phenyl}-tetrazol-2-ylmethyl)-benzoic acid; compound with trifluoro-acetic acid] | 280
O=C(O)c1ccc(Cn2nnc(-c3cccc(C#CCOc4ccc(F)cc4)c3)n2)cc1 [Example G4, 4-(5-{3-[3-(4-Fluoro-phenoxy)-prop-1-ynyl]-phenyl}-tetrazol-2-ylmethyl)-benzoic acid] | 86
O=C(O)c1ccc(Cn2nnc(-c3cccc(C#CCn4ccnc4)c3)n2)cc1 [Example G5, 4-{5-[3-(3-Imidazol-1-yl-prop-1-ynyl)-phenyl]-tetrazol-2-ylmethyl}-benzoic acid] | 6.8
O=C(O)c1ccc(Cn2nnc(-c3cccc(C#CCn4ccc(=O)cc4)c3)n2)cc1 [Example G6, 4-(5-{3-[3-(4-Oxo-4H-pyridin-1-yl)-prop-1-ynyl]-phenyl}-tetrazol-2-ylmethyl)-benzoic acid] | 6.4
O=C(O)c1ccc(Cn2nnc(-c3cccc(C#CCn4cnc(-c5ccccc5)c4)c3)n2)cc1 [Example G7, 4-(5-{3-[3-(4-Phenyl-imidazol-1-yl)-prop-1-ynyl]-phenyl}-tetrazol-2-ylmethyl)-benzoic acid] | 29
CC(C#Cc1cccc(-c2nnn(Cc3ccc(C(=O)O)cc3)n2)c1)c1ccccc1 (stereo not shown) [Example G8, 4-{5-[3-(3-Phenyl-but-1-ynyl)-phenyl]-tetrazol-2-ylmethyl}-benzoic acid] | 1800
O=C(O)c1ccc(Cn2nnc(-c3cncc(C#CCc4ccc(F)cc4)c3)n2)cc1 [Example H2, 4-(5-{5-[3-(4-Fluoro-phenyl)-prop-1-ynyl]-pyridin-3-yl}-tetrazol-2-ylmethyl)-benzoic acid] | 8.3
O=C(O)c1ccc(Cn2nnc(-c3cncc(C#CCn4ccnc4)c3)n2)cc1 [Example H3, 4-{5-[5-(3-Imidazol-1-yl-prop-1-ynyl)-pyridin-3-yl]-tetrazol-2-ylmethyl}-benzoic acid] | 160
[4-(5-{3-[3-(4-Fluoro-phenyl)-prop-1-ynyl]-phenyl}-tetrazol-2-ylmethyl)-phenyl]-phosphonic acid [Example D2] | 13

Tested on: not given
Assay: not given
Settings: not given

Molecule | melting point
COc1cc(CNC(=O)c2cccc(-c3nnn(Cc4ccc(C(=O)O)cc4)n3)c2)ccn1 (as salt: TFA) [Example 33, 4-(5-{3-[(2-Methoxy-pyridin-4-ylmethyl)-carbamoyl]-phenyl}-tetrazol-2-ylmethyl)-benzoic acid] | 228 °C (dec.)
COC(=O)c1ccc(CNC(=O)c2cccc(-c3nnn(Cc4cccc(OC)c4)n3)c2)cc1 [Example 3, 4-({3-[2-(3-Methoxy-benzyl)-2H-tetrazol-5-yl]-benzoylamino}-methyl)-benzoic acid methyl ester] | 153 to 154 °C
